Reference: paper PMC10683025, “Discovery of a Hydroxylamine-Based Brain-Penetrant EGFR Inhibitor for Metastatic Non-Small-Cell Lung Cancer” (Journal of Medicinal Chemistry, 2023)
≈ marks a conversion by molar mass, not a printed value. Where two headings read alike, the source gives them in different places.

Legend:
[1] = tested on: Ba/F3 EGFR-del E746_A750/C797S cells; test: CellTiter-Glo cell viability assay; type: cell-based; conditions: Mus musculus, BaF3; 72 h, unadjusted for FBS
Procedure: (§1) The A431, HCC827, SK-BR-3, ZR-75–30, AU565, and Caco-2 cell lines were obtained from ATCC. The NCI-H1975 cell line was obtained from SIBS. The NCI-H3255 cell line was obtained from CoBioer. Engineered Ba/F3 cell lines were obtained from Crown Bioscience. MCKII-MDR1 cells were obtained from The Netherlands Cancer Institute. HEK293 cells were obtained from Invitrogen. A431 cells were cultured in DMEM (Life Technologies) with 10% FBS. HCC827, NCI-H1975, and AU565 cells were cultured in RPMI1640 (Invitrogen) with 10% FBS. NCI-H3255 cells were cultured in BEGM (Lonza) with 10% FBS. Ba/F3 EGFR-del E746_A750/C797S and Ba/F3 EGFR-L858R/C797S cells were cultured in RPMI (Invitrogen) with 10% FBS. SK-BR-3 cells were cultured in McCoy’s 5a (Invitrogen) with 10% FBS. ZR-75-30 cells were cultured in RPMI1640 (Invitrogen) with 20% FBS. Caco-2 and MCKII-MDR1 culture information is given in the Permeability Studies section. HEK293 cells were cultured in DMEM (Gibco) with 10% FBS, 0.1 mM NEAA, 25 mM HEPES, 100 U/mL penicillin-streptomycin, μg/mL blasticidin, and 400 μg/mL Geneticin. All cells were cultured in a humidified incubator with 5% CO2 at 37 °C.
(§2) Viability assays using A431, HCC827, NCI-H1975, NCI-H3255, Ba/F3 EGFR-del E746_A750/C797S, Ba/F3 EGFR-L858R/C797S, AU565, SK-BR-3, and ZR-75-30 cells were performed at Crown BioScience. Cells were plated into 96-well plates at 1500–7000 cells per well and dosed in triplicate (n = 3) in a nine-point, 4-fold dilution series with compounds (0.15 nM to 10 μM) in DMSO and incubated for 72 h. After 72 h, cell viability was assayed by CellTiter-Glo Luminescent Viability Assay (Promega). Dose–response curves were generated and used to calculate the IC50 values which were calculated on GraphPad Prism from the nonlinear regression equation fitted with a sigmoidal dose response and are presented as mean ± SEM.

[2] = tested on: Ba/F3 EGFR-L858R/C797S cells; test: CellTiter-Glo cell viability assay; type: cell-based; conditions: Mus musculus, BaF3; 72 h, unadjusted for FBS
Procedure: as §1, §2

Caco-2 permeability = type: in vitro ADME; conditions: human; for recovery at 2 h, 5 μM: Caco-2, Caco-2
Procedure: A 96-well HTS Transwell plate (Corning) was used for Caco-2 and MDCKII-MDR1 cell seeding. […] Plates were incubated at 37 °C for 2 h, and samples (50 μL) were taken at the beginning and end of the incubation in both the donor and acceptor wells with the assay run in duplicate (n = 2). Samples were analyzed by LC-MS/MS.
The efflux ratio was determined by using the following equation: [drawing 4] where Papp (B–A) indicates the apparent permeability in the basolateral to apical direction and Papp (A–B) indicates the apparent permeability in the apical to basolateral direction.

EGFRL858R [3] = target: T1, EGFRL858R (Homo sapiens, UniProt P00533, L858R); test: KINOMEScan KdELECT Kd determination; type: binding; parameters: purchased Eurofins DiscoverX (contract assay); conditions: L858R
T1 sequence (P00533 25-1210 L858R): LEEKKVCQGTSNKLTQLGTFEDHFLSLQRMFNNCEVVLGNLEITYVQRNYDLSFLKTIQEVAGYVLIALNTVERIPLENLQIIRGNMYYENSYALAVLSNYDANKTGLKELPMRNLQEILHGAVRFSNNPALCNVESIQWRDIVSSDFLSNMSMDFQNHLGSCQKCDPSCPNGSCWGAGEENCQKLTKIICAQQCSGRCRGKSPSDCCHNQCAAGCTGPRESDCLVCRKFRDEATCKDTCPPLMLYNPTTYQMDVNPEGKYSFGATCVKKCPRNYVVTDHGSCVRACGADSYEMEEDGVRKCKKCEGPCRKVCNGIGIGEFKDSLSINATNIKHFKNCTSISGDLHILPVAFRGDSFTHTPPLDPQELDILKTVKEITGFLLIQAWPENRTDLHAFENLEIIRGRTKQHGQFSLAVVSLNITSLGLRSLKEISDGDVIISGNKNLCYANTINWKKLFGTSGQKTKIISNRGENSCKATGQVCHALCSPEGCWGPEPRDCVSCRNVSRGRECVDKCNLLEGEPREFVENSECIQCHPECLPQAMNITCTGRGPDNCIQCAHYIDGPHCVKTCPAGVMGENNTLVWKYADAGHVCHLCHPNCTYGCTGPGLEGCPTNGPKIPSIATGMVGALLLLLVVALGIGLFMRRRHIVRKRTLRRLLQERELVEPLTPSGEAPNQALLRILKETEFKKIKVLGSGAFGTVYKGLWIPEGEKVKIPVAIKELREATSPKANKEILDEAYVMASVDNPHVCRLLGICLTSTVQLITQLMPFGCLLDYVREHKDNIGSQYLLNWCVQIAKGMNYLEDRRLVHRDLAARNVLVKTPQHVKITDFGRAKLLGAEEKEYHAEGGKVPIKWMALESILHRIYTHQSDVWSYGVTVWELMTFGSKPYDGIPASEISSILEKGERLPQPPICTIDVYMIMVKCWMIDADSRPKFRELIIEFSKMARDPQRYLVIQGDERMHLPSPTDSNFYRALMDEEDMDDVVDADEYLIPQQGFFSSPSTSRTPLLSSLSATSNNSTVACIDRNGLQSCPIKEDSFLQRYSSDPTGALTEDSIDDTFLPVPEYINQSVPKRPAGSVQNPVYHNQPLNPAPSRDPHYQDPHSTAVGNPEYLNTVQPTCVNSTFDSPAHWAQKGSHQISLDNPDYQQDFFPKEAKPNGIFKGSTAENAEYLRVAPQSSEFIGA
Procedure: (§3) In vitro kinase activity (inhibitor binding constants (Kd) and biochemical inhibition (IC50’s)) were assessed by Eurofins DiscoverX (Kd determinations) and Eurofins Cerep (biochemical IC50 determinations).

[4] = tested on: HCC827 (EGFR mutation = exon19del); test: CellTiter-Glo cell viability assay; type: cell-based, human; conditions: Homo sapiens, HCC827; 72 h, unadjusted for FBS
Procedure: The NCI-H3255 cell line was obtained from CoBioer. […] NCI-H3255 cells were cultured in BEGM (Lonza) with 10% FBS. […] All cells were cultured in a humidified incubator with 5% CO2 at 37 °C.

hERG = target: T2, hERG (Homo sapiens, UniProt Q12809); test: hERG manual patch clamp in HEK293; type: cell-based; conditions: for IC50: human, HEK293 cells stably transfected with hERG, HEK 293 (+hERG), manual patch clamp
T2 construct: host or cells: HEK293
T2 sequence (Q12809 whole entry): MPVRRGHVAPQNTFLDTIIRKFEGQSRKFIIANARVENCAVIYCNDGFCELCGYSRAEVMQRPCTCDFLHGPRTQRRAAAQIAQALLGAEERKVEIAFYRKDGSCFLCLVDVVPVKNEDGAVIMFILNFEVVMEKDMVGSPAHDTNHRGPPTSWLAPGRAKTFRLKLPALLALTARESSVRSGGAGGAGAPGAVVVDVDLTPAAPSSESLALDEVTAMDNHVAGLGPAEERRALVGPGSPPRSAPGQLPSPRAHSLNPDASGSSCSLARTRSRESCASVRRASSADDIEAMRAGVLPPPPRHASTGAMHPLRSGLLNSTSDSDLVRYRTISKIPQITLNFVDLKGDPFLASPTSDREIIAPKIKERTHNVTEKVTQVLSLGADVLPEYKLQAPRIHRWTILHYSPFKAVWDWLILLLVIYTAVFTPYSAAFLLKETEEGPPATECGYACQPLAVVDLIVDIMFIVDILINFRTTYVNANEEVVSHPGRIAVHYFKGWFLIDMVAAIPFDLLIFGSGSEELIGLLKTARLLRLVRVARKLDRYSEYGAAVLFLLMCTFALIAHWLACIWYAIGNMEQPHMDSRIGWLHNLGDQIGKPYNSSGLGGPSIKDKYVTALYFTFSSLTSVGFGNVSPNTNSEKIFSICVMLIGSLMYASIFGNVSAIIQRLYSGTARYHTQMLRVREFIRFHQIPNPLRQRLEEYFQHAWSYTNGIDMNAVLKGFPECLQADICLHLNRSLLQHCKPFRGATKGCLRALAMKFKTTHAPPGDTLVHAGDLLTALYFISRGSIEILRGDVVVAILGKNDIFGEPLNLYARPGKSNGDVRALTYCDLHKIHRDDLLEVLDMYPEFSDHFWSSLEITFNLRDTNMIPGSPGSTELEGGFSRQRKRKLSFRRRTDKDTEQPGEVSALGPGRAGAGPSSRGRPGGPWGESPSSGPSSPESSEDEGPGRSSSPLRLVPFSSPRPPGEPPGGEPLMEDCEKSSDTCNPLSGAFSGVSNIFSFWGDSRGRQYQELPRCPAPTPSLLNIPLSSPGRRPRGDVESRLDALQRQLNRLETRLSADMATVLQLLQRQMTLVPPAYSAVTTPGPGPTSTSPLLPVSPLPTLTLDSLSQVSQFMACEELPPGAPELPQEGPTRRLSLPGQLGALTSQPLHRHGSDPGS

EGFRwt = target: T3, EGFRwt (Homo sapiens, UniProt P00533); test: KinaseProfiler enzymatic radiometric assay; type: biochemical; conditions: wt, ATP 10 μM; read-out: EGFR IC50
T3 construct: purchased Eurofins DiscoverX (contract assay)
T3 sequence (P00533 25-1210): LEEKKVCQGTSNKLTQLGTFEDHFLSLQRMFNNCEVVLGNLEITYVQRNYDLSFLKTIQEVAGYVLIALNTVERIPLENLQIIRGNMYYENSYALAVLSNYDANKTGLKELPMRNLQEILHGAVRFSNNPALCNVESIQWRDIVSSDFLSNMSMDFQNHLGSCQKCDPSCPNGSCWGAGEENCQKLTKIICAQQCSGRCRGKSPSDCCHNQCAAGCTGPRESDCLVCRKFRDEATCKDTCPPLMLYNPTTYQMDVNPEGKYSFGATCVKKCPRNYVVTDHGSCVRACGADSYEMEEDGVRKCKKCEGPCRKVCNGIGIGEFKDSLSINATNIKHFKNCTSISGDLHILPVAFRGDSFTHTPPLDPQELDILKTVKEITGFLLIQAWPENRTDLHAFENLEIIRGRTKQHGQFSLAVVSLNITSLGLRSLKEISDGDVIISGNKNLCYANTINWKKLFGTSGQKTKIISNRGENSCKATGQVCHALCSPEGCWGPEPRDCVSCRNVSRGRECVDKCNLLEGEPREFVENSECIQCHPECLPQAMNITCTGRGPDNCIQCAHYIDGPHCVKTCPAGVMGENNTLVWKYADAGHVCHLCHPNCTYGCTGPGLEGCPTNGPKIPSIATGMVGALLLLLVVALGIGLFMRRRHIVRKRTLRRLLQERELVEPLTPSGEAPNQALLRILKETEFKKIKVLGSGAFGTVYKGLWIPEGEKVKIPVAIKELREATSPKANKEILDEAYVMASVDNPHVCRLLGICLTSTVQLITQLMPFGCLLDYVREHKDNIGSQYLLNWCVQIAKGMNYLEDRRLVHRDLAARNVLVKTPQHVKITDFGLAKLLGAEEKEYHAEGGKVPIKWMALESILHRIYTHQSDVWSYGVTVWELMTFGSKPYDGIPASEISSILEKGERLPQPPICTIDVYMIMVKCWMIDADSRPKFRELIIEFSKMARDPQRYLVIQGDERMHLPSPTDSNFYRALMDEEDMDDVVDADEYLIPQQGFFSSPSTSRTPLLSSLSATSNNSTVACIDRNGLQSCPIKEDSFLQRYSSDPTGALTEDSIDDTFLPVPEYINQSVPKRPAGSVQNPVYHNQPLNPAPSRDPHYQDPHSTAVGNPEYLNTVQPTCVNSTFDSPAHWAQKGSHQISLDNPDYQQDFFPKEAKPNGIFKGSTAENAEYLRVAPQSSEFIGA
Procedure: as §3

[5] = Metabolic stability in hepatocytes; type: in vitro ADME, Sprague-Dawley rat; conditions: for hepatocyte CLint at 2 h, 1 µM / half-life at 2 h, 1 µM: Sprague-Dawley, rat, hepatocytes; for half-life at 2 h, 1 µM: read-out: HEP t1/2; for Remaining Percentages: rat hepatocytes
Procedure: (§4) Microsome stability was assessed in duplicate (n = 2) in the presence and absence of nicotinamide adenine dinucleotide phosphate (NADPH) with liver microsomes (0.5 mg/mL) from human (BD Gentest) and Sprague-Dawley rats (BD Gentest). Compounds were incubated in liver microsomes at 1 μM and samples (30 μL) were taken at 0.5, 15, 30, 45, and 60 min time points for analysis by LC-MS/MS. Hepatocyte stability was assessed in duplicate (n = 2) at a working cell density of 0.5 × 10^6 cells/mL with hepatocytes from human (BiolVT), Sprague-Dawley rat (BiolVT), cynomolgus monkey (RILD) or beagle dog (BiolVT). […] The in vitro half-life and intrinsic clearances were determined as previously described.[76]
(§5) In vitro half-life (in vitro t1/2) was determined from the slope value in [drawing 1] where k was determined by linear regression of the natural logarithm of the remaining percentage of the parent drug vs the incubation time curve.

EGFRL858R [6] = target: T1, EGFRL858R; test: KinaseProfiler enzymatic radiometric assay; type: biochemical; parameters: purchased Eurofins Cerep (KinaseProfiler, contract assay); conditions: ATP 10 μM, read-out: EGFR IC50
Procedure: as §3

Plasma stability = type: in vitro ADME, human; conditions: for Remaining Percentages / t1/2: human plasma; for t1/2: ∞ = no degradation
Procedure: Assessment of compounds to determine stability in incubations containing plasma of human (Pharmaron) and Sprague-Dawley rat (IPHASE) was performed by Pharmaron, Inc. using the compound […] approach. Compounds were assessed in duplicate (n = 2) and incubated in plasma at 5 μM and samples (50 μL) were taken at 0, 15, 30, 60, and 120 min time points for analysis by LC-MS/MS. Peak area ratios were determined from the extracted ion chromatogram and the percent compound remaining at each time point was calculated by the following equation: [drawing 2] where peak area ratiot min is the peak area ratio of control and test compound at t min and peak area ratio0 min is the peak area ratio of control and test compound at zero time point.

Solubility assay = type: physicochemical; conditions: buffer; for solubility kinetic at 2 h: pH 7.4, aqueous buffer, read-out: Aq. Sol.; for solubility at 2 h: read-out: Aq. Solubility
Procedure: Solubility was determined by Pharmaron, Inc. and each compound was assessed in duplicate (n = 2) by adding 15 μL of compound stock solution (10 mM in DMSO) into a 96-well plate along with 485 μL of buffer followed by shaking at 25 °C, 1100 rpm for 2 h. Wells were filtered, and samples (5 μL) were taken followed by dilution with an equal volume of DMSO (5 μL) and 490 μL of aqueous solution. Samples were analyzed by LC-MS/MS.

[7] = Brain tissue binding by equilibrium dialysis; type: in vitro ADME; conditions: rat; for recovery at 6 h, 5 μM: Sprague-Dawley (SD); for fraction unbound at 6 h, 5 μM / remaining at 6 h, 5 μM: Sprague-Dawley
Procedure: Plasma protein binding and brain tissue binding were determined by Pharmaron, Inc. using the equilibrium dialysis method. […] Following incubation, the samples were analyzed by LC-MS/MS and the concentrations of the compounds were determined in the buffer and plasma solution chambers.

[8] = Metabolic stability in liver microsomes; type: in vitro ADME, Sprague-Dawley rat; conditions: for half-life at 1 h, 1 µM / microsomal CLint at 1 h, 1 µM: Sprague-Dawley, rat, liver microsomes; for half-life at 1 h, 1 µM: read-out: LM t1/2; for microsomal CLint at 1 h, 1 µM: read-out: LMClint; for Remaining Percentage: rat LM
Procedure: as §4, §5

[9] = brain homogenate, read-out: fu,brain% / %Unboundbrain
[10] = rat brain homogenate, read-out: %Boundbrain (converted)

Question: Which results are given for `COc1cc2ncnc(Nc3cccc(Cl)c3F)c2cc1OCCON1CCOCC1` [Compound 7, N-(3-Chloro-2-fluorophenyl)-7-methoxy-6-(2-(morpholinooxy)ethoxy)quinazolin-4-amine]?
Answer: IC50 [1]: 2.5 nM; IC50 [2]: 5 nM; efflux ratio at 2 h, 5 µM (Caco-2 permeability; Caco-2): 1; recovery at 2 h, 5 μM (Caco-2 permeability; read-out: Recovery% (AP-BL)): 72.9%; recovery at 2 h, 5 μM (Caco-2 permeability; read-out: Recovery% (BL-AP)): 72.2%; Papp A→B at 2 h, 5 µM (Caco-2 permeability; Caco-2): 10.9 ×10⁻⁶ cm/s; Papp A→B at 2 h, 5 μM (Caco-2 permeability; Caco-2): 10.9 ×10⁻⁶ cm/s; Papp B→A at 2 h, 5 µM (Caco-2 permeability; Caco-2): 10.8 ×10⁻⁶ cm/s; Papp B→A at 2 h, 5 μM (Caco-2 permeability; Caco-2): 10.8 ×10⁻⁶ cm/s; Kd (EGFRL858R [3]): < 0.2 nM; IC50 [4]: 0.31 nM; IC50 (hERG): 8480 ± 3500 nM; IC50 (EGFRwt): 3 nM; hepatocyte CLint at 2 h, 1 µM [5]: 126 µL/min/1e6 cells; half-life at 2 h, 1 µM [5]: 11 min; Remaining Percentages ([5]; 15 min): 38.18%; Remaining Percentages ([5]; 30 min): 15.61%; Remaining Percentages ([5]; 60 min): 2.48%; Remaining Percentages ([5]; 90 min): 0.92%; Remaining Percentages ([5]; 120 min): 0.74%; IC50 (EGFRL858R [6]): 1 nM; Remaining Percentages (Plasma stability; 15 min): 100.68%; Remaining Percentages (Plasma stability; 30 min): 93.61%; Remaining Percentages (Plasma stability; 60 min): 100.91%; Remaining Percentages (Plasma stability; 120 min): 97.91%; t1/2 (Plasma stability): ∞; solubility kinetic at 2 h (Solubility assay): 36 µM (≈ 16.2 µg/mL); recovery at 6 h, 5 μM ([7]; rat brain homogenate): 94.7%; fraction unbound at 6 h, 5 μM [7, 9]: 0.0478; remaining at 6 h, 5 μM ([7]; rat brain homogenate): 98.3%; fraction unbound at 6 h, 5 μM [7, 10]: 0.0478; half-life at 1 h, 1 µM [8]: 10 min; microsomal CLint at 1 h, 1 µM [8]: 138 µL/min/mg; Remaining Percentage ([8]; +Cofactors, 15 min): 28.79%; Remaining Percentage ([8]; +Cofactors, 30 min): 12.97%; Remaining Percentage ([8]; +Cofactors, 45 min): 8.49%; Remaining Percentage ([8]; +Cofactors, 60 min): 5.84%; Remaining Percentage ([8]; -Cofactors, 60 min): 118.60%

Question: With `COc1cc2ncnc(Nc3cccc(Cl)c3F)c2cc1OCCON1CCN(C)CC1` [Compound 9, N-(3-Chloro-2-fluorophenyl)-7-methoxy-6-(2-((4-methylpiperazin-1-yl)oxy)ethoxy)quinazolin-4-amine] as the compound, how does the IC50 [1] read?
Answer: 2.5 nM

Question: And the IC50 [2]?
Answer: 4.6 nM

Question: And the efflux ratio at 2 h, 5 µM (Caco-2 permeability; Caco-2)?
Answer: 1.3

Question: And the efflux ratio at 2 h, 5 μM (Caco-2 permeability; Caco-2)?
Answer: 1.32

Question: And the recovery at 2 h, 5 μM (Caco-2 permeability; read-out: Recovery% (AP-BL))?
Answer: 53.9%

Question: What about the recovery at 2 h, 5 μM (Caco-2 permeability; read-out: Recovery% (BL-AP)) of the same compound?
Answer: 73.5%

Question: And the Papp A→B at 2 h, 5 µM (Caco-2 permeability; Caco-2)?
Answer: 6.5 ×10⁻⁶ cm/s

Question: What about the Papp A→B at 2 h, 5 μM (Caco-2 permeability; Caco-2) of the same compound?
Answer: 6.52 ×10⁻⁶ cm/s

Question: And the Papp B→A at 2 h, 5 µM (Caco-2 permeability; Caco-2)?
Answer: 8.6 ×10⁻⁶ cm/s

Question: What about the Papp B→A at 2 h, 5 μM (Caco-2 permeability; Caco-2) of the same compound?
Answer: 8.61 ×10⁻⁶ cm/s

Question: And the Kd (EGFRL858R [3])?
Answer: < 0.2 nM

Question: And the IC50 [4]?
Answer: 3.1 nM

Question: What about the “%hERG inhibition” value (hERG; 1 μM) of the same compound?
Answer: 17%

Question: And the IC50 (hERG)?
Answer: 6480 nM

Question: And the IC50 (EGFRwt)?
Answer: 3 nM

Question: What about the hepatocyte CLint at 2 h, 1 µM [5] of the same compound?
Answer: 70 µL/min/1e6 cells

Question: What about the half-life at 2 h, 1 µM [5] of the same compound?
Answer: 19.7 min

Question: What about the “Remaining Percentages” value ([5]; 15 min) of the same compound?
Answer: 47.58%

Question: And the “Remaining Percentages” value ([5]; 30 min)?
Answer: 28.51%

Question: What about the “Remaining Percentages” value ([5]; 60 min) of the same compound?
Answer: 11.71%

Question: And the “Remaining Percentages” value ([5]; 90 min)?
Answer: 4.98%

Question: What about the “Remaining Percentages” value ([5]; 120 min) of the same compound?
Answer: 2.53%

Question: What about the IC50 (EGFRL858R [6]) of the same compound?
Answer: 2 nM

Question: What about the “Remaining Percentages” value (Plasma stability; 15 min) of the same compound?
Answer: 93.43%

Question: And the “Remaining Percentages” value (Plasma stability; 30 min)?
Answer: 92.26%

Question: What about the “Remaining Percentages” value (Plasma stability; 60 min) of the same compound?
Answer: 97.47%

Question: What about the “Remaining Percentages” value (Plasma stability; 120 min) of the same compound?
Answer: 92.38%

Question: And the t1/2 (Plasma stability)?
Answer: ∞

Question: What about the remaining at 5 μM (Plasma stability; human, plasma) of the same compound?
Answer: > 90%

Question: And the solubility at 2 h (Solubility assay; pH 1.2)?
Answer: > 300 µM

Question: And the solubility at 2 h (Solubility assay; pH 6.8)?
Answer: 262 µM (≈ 121 µg/mL)

Question: And the solubility kinetic at 2 h (Solubility assay)?
Answer: 199 µM (≈ 91.9 µg/mL)

Question: And the recovery at 6 h, 5 μM ([7]; rat brain homogenate)?
Answer: 102%

Question: And the fraction unbound at 6 h, 5 μM [7, 9]?
Answer: 0.0447

Question: And the remaining at 6 h, 5 μM ([7]; rat brain homogenate)?
Answer: 94.7%

Question: And the fraction unbound at 6 h, 5 μM [7, 10]?
Answer: 0.0447

Question: And the fraction unbound at 6 h, 5 µM [7, 9]?
Answer: 0.045

Question: And the half-life at 1 h, 1 µM [8]?
Answer: 9.5 min

Question: What about the microsomal CLint at 1 h, 1 µM [8] of the same compound?
Answer: 146 µL/min/mg

Question: And the “Remaining Percentage” value ([8]; +Cofactors, 15 min)?
Answer: 34.07%

Question: And the “Remaining Percentage” value ([8]; +Cofactors, 30 min)?
Answer: 11.66%

Question: And the “Remaining Percentage” value ([8]; +Cofactors, 45 min)?
Answer: 6.01%

Question: And the “Remaining Percentage” value ([8]; +Cofactors, 60 min)?
Answer: 2.50%

Question: What about the “Remaining Percentage” value ([8]; -Cofactors, 60 min) of the same compound?
Answer: 113.38%
